The values below come from patent US20160289745A1, “NUCLEIC ACID ASSAY FOR DIAGNOSING OR […] PATHOGEN INFECTION IN A BODILY FLUID FROM A SUBJECT TREATED WITH AN ANTI-[…]” (priority 2012, published 2016).

In experiment [1] the test system is MTC strain (Mycobacterium tuberculosis). The experiment in a line: Drug susceptibility testing of the patient's MTC strain. The experiment is classed as cell-based.
For experiment [2], the system named is Mycobacterium tuberculosis Complex (MTC). To be noted: human, in vivo.

As for `[H]/N=C(/N)N[C@H]1[C@H](O)[C@@H](O)[C@H](O[C@@H]2O[C@@H](C)[C@](O)(C=O)[C@H]2O[C@@H]2O[C@@H](CO)[C@H](O)[C@@H](O)[C@@H]2NC)[C@@H](N/C(N)=N\[H])[C@@H]1O` [Streptomycin], the “drug susceptibility testing result” value in experiment [1] (MTC strain of patient 21) and in experiment [1] (MTC strain of patient 23) was “resistance” in each case.
As to `CCCc1cc(C(N)=S)ccn1` [Prothionamid], the “drug susceptibility testing result” value in experiment [1] (MTC strain of patient 21) and in experiment [1] (MTC strain of patient 23) was “resistance” each time.
In the case of `NNC(=O)c1ccncc1` [Isoniazid], the “drug susceptibility testing result” value in experiment [1] (MTC strain of patient 21) and in experiment [1] (MTC strain of patient 23) was “resistance” in each case.
As to `Nc1ccc(C(=O)O)c(O)c1` [PAS, para-aminosalicylic acid], in experiment [2], the “analysis of DNA in urine” value is given as “negative”.
